{
  "source": "PubChem BioAssay AID2060882",
  "about": "(Molecular Pharmacology Branch, DTP, NCI, 2025)",
  "system": "898857-211-R-J1-PDC complex spheroids, growth % test/control",
  "experiment": "Anticancer human tumor 898857-211-R-J1-PDC patient-derived melanoma cell line growth inhibition [RAS]",
  "conditions": "for viability, T/C: stronger effect = lower value",
  "excerpt": "RAS pathway inhibitors in Combinations in Complex Spheroids\nA high-throughput screen of multi-cell type tumor spheroids was designed to identify active combinations of RAS pathway inhibitors and targeted small molecules. Complex spheroids include a stromal component modeled by human endothelial cells (HUVEC) and fibroblasts modeled by human mesenchymal stem cells (MSCs). The concentration ranges selected for each drug and investigational agent were based upon clinically achievable concentrations if the clinical Cmax of the agent was known.\nCompounds. The drugs and investigational agents: abemaciclib (NSC768073), cobimetinib (NSC768068), divarasib (GDC6063, NSC841802), docetaxel (NSC628503), GDC-1971 (RLY-1971, NSC841576), gemcitabine (NSC613327), inavolisib (NSC800729), ipatasertib (NSC767898), KB-0742 (NSC834161), MRTX-1133 (NSC836407), osimertinib (NSC779217), RMC-4630 (NSC839698), RMC-6236 (NSC851965), RMC-6291 (NSC852671), Ro-3306 (NSC812927), sapanisertib (NSC764658), SN-38 (NSC673596), staurosporine (NSC755774), SY5609 (NSC837396), and tovorafenib (DAY101, NSC766906), were obtained from the National Cancer Institute (NCI) Developmental Therapeutics Program Chemical Repository. The FDA-approved anticancer drug set is available from the NCI Developmental Therapeutics Program. […] The stock solutions were prepared in dimethyl sulfoxide (DMSO, Sigma-Aldrich, St. Louis, MO, cat. D2650) at 800-fold the tested concentration and stored at -70 degrees C prior to their use. All drugs and investigational agents were tested over a range starting from a high concentration at or near the clinical Cmax and decreasing in half-log increments. If the clinical Cmax for an agent had not been determined, the highest concentration tested was 10 microM.\nCell Culture. All cells were maintained in an incubator at 37 degrees C and 5% CO2 with 95% humidity. The PDC lines were cultured according to standard operating procedures established by the NCI PDMR. All PDCs were thawed and cultured in Matrigel-coated flasks prepared with a working solution of 1X Ham's F-12 nutrient mix, without supplementation (Invitrogen, Waltham, MA, cat. 11765054), 100 U/mL penicillin-streptomycin (Invitrogen, cat. 15140122), and 2.5% Matrigel (Corning Inc., Corning, NY, cat. 354248) for the first three passages. The 362531-283-R-J2-PDC and 782815-120-R-J1-PDC lines were cultured in 6C/Colon 1B media, which includes advanced DMEM/F-12 (Thermo Fisher Scientific, cat. 12634028), 10 mM HEPES (Thermo Fisher Scientific, cat. 15630080), 1X GlutaMAX supplement (Thermo Fisher Scientific, cat. 35050061), 0.1 mg/mL primocin (InvivoGen, San Diego, CA, cat. ant-pm-2), 10% defined fetal bovine serum, heat inactivated (HyClone Laboratories Inc., Logan, UT, cat. SH30070.03HI), 50% L-WRN conditioned media (ATCC, cat. CRL-3276), 1.25 mM N-Acetyl-L-cysteine (Sigma-Aldrich, cat. A9165), 10 mM nicotinamide (Sigma-Aldrich, cat. N0636), 1X B-27 supplement (Thermo Fisher Scientific, cat. 17504044), 1X N-2 supplement (Thermo Fisher Scientific, cat. 17502048), 50 ng/mL human EGF (Thermo Fisher Scientific, cat. PHG0311), and 10 microM Y-27632 dihydrochloride (Tocris Bioscience, cat. 1254). The K12877-001-R-J1-PDC line was cultured in 6I media, which includes all 6C/Colon 1B media plus 10 ng/mL human FGF-10 (PeproTech, cat. 100-26), 1 ng/mL human FGF-2 (PeproTech, cat. 100-18B), 1 µM prostaglandin E2 (Tocris Bioscience, cat. 2296), […] hydrocortisone (Sigma-Aldrich, cat. H4001), and […] bovine insulin (Sigma-Aldrich, cat. I6634). The K86415-001-R-J1-PDC line was cultured in 6D media, which includes all 6C/Colon 1B media components minus the L-WRN conditioned media. The 485176-168-R4-J1-PDC was cultured in PANC media, which includes all 6C/Colon 1B media plus 100 ng/mL human FGF-10 (PeproTech, cat. 100-26), 500 nM SB-431542 (Selleckchem, cat. S1067), and 10 nM gastrin (Tocris Bioscience, cat. 3006). […]",
  "data": [
    {"compound": "CCn1c(-c2cccnc2C(C)OC)c2c3cc(ccc31)N1CCOC(CC(NC(=O)C(C(C)C)N(C)C(=O)C3(F)CCN(C(=O)C#CC(C)(C)N(C)C)CC3)C(=O)N3CCCC(N3)C(=O)OCC(C)(C)C2)C1", "note": "(stereo not drawn);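 further: spheroids exposed to compound for seven days before readout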;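 on viability, T/C: 100% = DMSO vehicle control wells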", "values": [
      {"measurement": "viability, T/C", "setting": "compound 0.000949 µM", "value": "110% [middle of 6 runs]"},
      {"measurement": "viability, T/C", "setting": "compound 0.00949 µM", "value": "112% [middle of 6 runs]"},
      {"measurement": "viability, T/C", "setting": "compound 0.03 µM", "value": "103% [middle of 6 runs]"},
      {"measurement": "viability, T/C", "setting": "compound 0.0949 µM", "value": "92.8% [middle of 6 runs]"},
      {"measurement": "viability, T/C", "setting": "compound 0.3 µM", "value": "81.3% [middle of 6 runs]"},
      {"measurement": "IC50", "setting": "compound alone, run of 08/20/2024", "value": "> 0.3", "unit": "µM"}
    ]},
    {"compound": "C[C@@H](NC(=O)c1ncnc(N)c1Cl)c1ncc(C(=O)Nc2cc(C(F)(F)F)c(Cl)cn2)s1", "note": "+ CCn1c(-c2cccnc2C(C)OC)c2c3cc(ccc31)N1CCOC(CC(NC(=O)C(C(C)C)N(C)C(=O)C3(F)CCN(C(=O)C#CC(C)(C)N(C)C)CC3)C(=O)N3CCCC(N3)C(=O)OCC(C)(C)C2)C1", "values": [
      {"measurement": "IC50", "setting": "curve of first compound, second compound 0.000949 µM", "value": 3.86, "unit": "µM"},
      {"measurement": "IC50", "setting": "curve of first compound, second compound 0.003 µM", "value": 2.55, "unit": "µM"},
      {"measurement": "IC50", "setting": "curve of first compound, second compound 0.00949 µM", "value": 3.12, "unit": "µM"},
      {"measurement": "IC50", "setting": "curve of first compound, second compound 0.03 µM", "value": 3.88, "unit": "µM"},
      {"measurement": "IC50", "setting": "curve of first compound, second compound 0.0949 µM", "value": 3.03, "unit": "µM"},
      {"measurement": "IC50", "setting": "curve of first compound, second compound 0.3 µM", "value": 1.97, "unit": "µM"},
      {"measurement": "viability, T/C", "setting": "second compound 0.000949 µM, first compound 0.0316 µM", "value": 121, "unit": "%"},
      {"measurement": "viability, T/C", "setting": "second compound 0.000949 µM, first compound 0.1 µM", "value": 114, "unit": "%"},
      {"measurement": "viability, T/C", "setting": "second compound 0.000949 µM, first compound 0.316 µM", "value": 112, "unit": "%"},
      {"measurement": "viability, T/C", "setting": "second compound 0.000949 µM, first compound 1 µM", "value": 83.5, "unit": "%"},
      {"measurement": "viability, T/C", "setting": "second compound 0.000949 µM, first compound 3.16 µM", "value": 56.2, "unit": "%"},
      {"measurement": "viability, T/C", "setting": "second compound 0.000949 µM, first compound 10 µM", "value": 27.5, "unit": "%"},
      {"measurement": "viability, T/C", "setting": "second compound 0.003 µM, first compound 0.0316 µM", "value": 128, "unit": "%"},
      {"measurement": "viability, T/C", "setting": "second compound 0.003 µM, first compound 0.1 µM", "value": 105, "unit": "%"},
      {"measurement": "viability, T/C", "setting": "second compound 0.003 µM, first compound 0.316 µM", "value": 103, "unit": "%"},
      {"measurement": "viability, T/C", "setting": "second compound 0.003 µM, first compound 1 µM", "value": 66.4, "unit": "%"},
      {"measurement": "viability, T/C", "setting": "second compound 0.003 µM, first compound 3.16 µM", "value": 45.6, "unit": "%"},
      {"measurement": "viability, T/C", "setting": "second compound 0.003 µM, first compound 10 µM", "value": 28.8, "unit": "%"},
      {"measurement": "viability, T/C", "setting": "second compound 0.00949 µM, first compound 0.0316 µM", "value": 114, "unit": "%"},
      {"measurement": "viability, T/C", "setting": "second compound 0.00949 µM, first compound 0.1 µM", "value": 120, "unit": "%"},
      {"measurement": "viability, T/C", "setting": "second compound 0.00949 µM, first compound 0.316 µM", "value": 111, "unit": "%"},
      {"measurement": "viability, T/C", "setting": "second compound 0.00949 µM, first compound 1 µM", "value": 81.3, "unit": "%"},
      {"measurement": "viability, T/C", "setting": "second compound 0.00949 µM, first compound 3.16 µM", "value": 52.1, "unit": "%"},
      {"measurement": "viability, T/C", "setting": "second compound 0.00949 µM, first compound 10 µM", "value": 27.9, "unit": "%"},
      {"measurement": "viability, T/C", "setting": "second compound 0.03 µM, first compound 0.0316 µM", "value": 123, "unit": "%"},
      {"measurement": "viability, T/C", "setting": "second compound 0.03 µM, first compound 0.1 µM", "value": 116, "unit": "%"},
      {"measurement": "viability, T/C", "setting": "second compound 0.03 µM, first compound 0.316 µM", "value": 97.4, "unit": "%"},
      {"measurement": "viability, T/C", "setting": "second compound 0.03 µM, first compound 1 µM", "value": 83.7, "unit": "%"},
      {"measurement": "viability, T/C", "setting": "second compound 0.03 µM, first compound 3.16 µM", "value": 53.6, "unit": "%"},
      {"measurement": "viability, T/C", "setting": "second compound 0.03 µM, first compound 10 µM", "value": 26.6, "unit": "%"},
      {"measurement": "viability, T/C", "setting": "second compound 0.0949 µM, first compound 0.0316 µM", "value": 105, "unit": "%"},
      {"measurement": "viability, T/C", "setting": "second compound 0.0949 µM, first compound 0.1 µM", "value": 100, "unit": "%"},
      {"measurement": "viability, T/C", "setting": "second compound 0.0949 µM, first compound 0.316 µM", "value": 87.2, "unit": "%"},
      {"measurement": "viability, T/C", "setting": "second compound 0.0949 µM, first compound 1 µM", "value": 66.7, "unit": "%"},
      {"measurement": "viability, T/C", "setting": "second compound 0.0949 µM, first compound 3.16 µM", "value": 51.7, "unit": "%"},
      {"measurement": "viability, T/C", "setting": "second compound 0.0949 µM, first compound 10 µM", "value": 24.9, "unit": "%"},
      {"measurement": "viability, T/C", "setting": "second compound 0.3 µM, first compound 0.0316 µM", "value": 82.9, "unit": "%"},
      {"measurement": "viability, T/C", "setting": "second compound 0.3 µM, first compound 0.1 µM", "value": 87.9, "unit": "%"},
      {"measurement": "viability, T/C", "setting": "second compound 0.3 µM, first compound 0.316 µM", "value": 73.2, "unit": "%"},
      {"measurement": "viability, T/C", "setting": "second compound 0.3 µM, first compound 1 µM", "value": 62.5, "unit": "%"},
      {"measurement": "viability, T/C", "setting": "second compound 0.3 µM, first compound 3.16 µM", "value": 41.8, "unit": "%"},
      {"measurement": "viability, T/C", "setting": "second compound 0.3 µM, first compound 10 µM", "value": 21.3, "unit": "%"}
    ]}
  ]
}
